Read-outs that look alike come from different tables or passages of the source. One block for each molecule: values may come before it.
Tests used:
[1] = Exploratory trial: plasma concentration of rikkunshito ingredients after single oral rikkunshito 7.5 g; format: in vivo
In short: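 Plasma and urine levels were measured by LC–MS/MS after one 7.5 g oral dose of rikkunshito. Samples were collected before dosing and at 0.5–8 h for blood, or in 0–4 h and 4–8 h fractions for urine. Synephrine was determined after protein-removal plate cleanup; the other ingredients after β-glucuronidase deconjugation (2 h, 37°C) and SPE.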

[2] = Randomized crossover quantitative trial: plasma pharmacokinetics of nine ingredients after rikkunshito 2.5, 5.0 or 7.5 g
In short: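 Plasma concentrations of ingredients were measured by LC–MS/MS or GC–MS in samples taken from pre-dose to 48 h. Dosing was a single oral rikkunshito dose (2.5, 5.0 or 7.5 g; three-arm randomized crossover) in fasted healthy Japanese volunteers aged 20–45.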

[3] = cited from earlier work
[4] = Method validation: stability in blood
[5] = Method validation: post-preparative stability (autosampler)
[6] = human, plasma, po, 2.5 g, AUC0-last, rikkunshito 2.5 g single oral, n = 21, geometric mean (95% CI)
[7] = human, plasma, po, 2.5 g, C max, rikkunshito 2.5 g single oral, n = 21, geometric mean (95% CI)
[8] = human, plasma, po, 2.5 g, Median t max (range), rikkunshito 2.5 g single oral, n = 21, median (minimum–maximum)
[9] = human, plasma, po, 5 g, AUC0-last, rikkunshito 5.0 g single oral, n = 19, geometric mean (95% CI)
[10] = human, plasma, po, 5 g, C max, rikkunshito 5.0 g single oral, n = 19, geometric mean (95% CI)
[11] = human, plasma, po, 5 g, Median t max (range), rikkunshito 5.0 g single oral, n = 19, median (minimum–maximum)
[12] = human, plasma, po, 5 g, t 1/2, rikkunshito 5.0 g single oral, n = 19, geometric mean (95% CI)
[13] = human, plasma, po, 7.5 g, AUC0-last, rikkunshito 7.5 g single oral, n = 19, geometric mean (95% CI)
[14] = human, plasma, po, 7.5 g, C max, rikkunshito 7.5 g single oral, n = 19, geometric mean (95% CI)
[15] = human, plasma, po, 7.5 g, t 1/2, rikkunshito 7.5 g single oral, n = 19, geometric mean (95% CI)
[16] = rikkunshito 7.5 g single oral, n = 19, geometric mean (95% CI)
[17] = rikkunshito 7.5 g single oral, n = 19, median (minimum–maximum)

SMILES: O=C1C[C@@H](c2ccc(O)cc2)Oc2cc(O)cc(O)c21 [Naringenin]
concentration at 0 h ([1]; human, in vivo, po): 0.378 ± 0.755 ng/mL
concentration at 0.5 h ([1]; human, in vivo, po): 0.0358 ± 0.0715 ng/mL
concentration at 2 h ([1]; human, in vivo, po): 0.0813 ± 0.105 ng/mL
concentration at 4 h ([1]; human, in vivo, po): 0.0715 ± 0.0831 ng/mL
Plasma concentration, 1 h ([1]; in vivo, po): BQL
Plasma concentration, 8 h ([1]; in vivo, po): BQL
AUC(0-t) [2, 6]: 1.65 ng·h/mL
Cmax [2, 7]: 0.376 ng/mL
Tmax [2, 8]: 5.83 h
AUC(0-t) [2, 9]: 3.32 ng·h/mL
Cmax [2, 10]: 0.878 ng/mL
Tmax [2, 11]: 4 h
half-life [2, 12]: 4.46 h
AUC(0-t) [2, 13]: 4.63 ng·h/mL
Cmax [2, 14]: 1.15 ng/mL
Tmax ([2]; human, plasma, po, 7.5 g, Median t max (range), rikkunshito 7.5 g single oral, n = 19, median (minimum–maximum)): > 3 h
half-life [2, 15]: < 10 h
t 1/2 [2, 16]: 5.38 (3.31–8.76) h
Median t max (range) [2, 17]: 4.00 (2.00–6.00) h
Maximum plasma concentration in the preliminary pharmacokinetics study ([3]; 7.5 g dosage): 0.162 ± 0.0392 ng/mL
Stability in blood, RR ([4]; on ice 2 h, higher concentration (800 / 320 / 4000 pg/mL)): 98.1%
Stability in blood, RR ([4]; on ice 2 h, lower concentration (20 / 8 / 100 pg/mL)): 95.8%
Post-preparative stability, RR ([5]; autosampler set at 4°C, 48 h, higher concentration (800 / 320 / 4000 pg/mL)): 87.1%
Post-preparative stability, RR ([5]; autosampler set at 4°C, 48 h, lower concentration (20 / 8 / 100 pg/mL)): 85.6%
Post-preparative stability, RR ([5]; naringenin 100 pg/mL, autosampler set at 4°C, 25 h as printed in the cell): 91.7%
Post-preparative stability, RR ([5]; naringenin 4000 pg/mL, autosampler set at 4°C, 25 h as printed in the cell): 96.7%

SMILES: C/C=C/C#CC#C/C=C/c1ccco1 [Atractylodin]
concentration at 0 h ([1]; human, in vivo, 0 h (preadministration), single oral rikkunshito 7.5 g, mean ± S.D., n = 4, read-out: Plasma concentration, 0 h): 0.328 ± 0.655 ng/mL
concentration at 0.5 h ([1]; human, in vivo, 0.5 h after single oral rikkunshito 7.5 g, mean ± S.D., n = 4, read-out: Plasma concentration, 0.5 h): 1.19 ± 0.913 ng/mL
concentration at 1 h ([1]; human, in vivo, 1 h after single oral rikkunshito 7.5 g, mean ± S.D., n = 4): 1.38 ± 1.15 ng/mL
concentration at 2 h ([1]; human, in vivo, 2 h after single oral rikkunshito 7.5 g, mean ± S.D., n = 4, read-out: Plasma concentration, 2 h): 0.863 ± 1.01 ng/mL
concentration at 4 h ([1]; human, in vivo, 4 h after single oral rikkunshito 7.5 g, mean ± S.D., n = 4, read-out: Plasma concentration, 4 h): 1.14 ± 0.899 ng/mL
concentration at 8 h ([1]; human, in vivo, 8 h after single oral rikkunshito 7.5 g, mean ± S.D., n = 4, read-out: Plasma concentration, 8 h): 0.295 ± 0.59 ng/mL
Cmax ([1]; human, in vivo, rikkunshito 7.5 g, four subjects, highest mean concentration over 0–8 h, read-out: C max in plasma (exploratory trial)): 1.38 ng/mL
Plasma concentration just before the administration ([2]; all subjects, quantitative trial): BQL
AUC(0-t) ([2]; human, in vivo, po, 2.5 g): 0.318 ng·h/mL
Cmax ([2]; human, in vivo, po, 2.5 g): 0.531 ng/mL
Tmax ([2]; human, in vivo, po, 2.5 g, Median t max (range), rikkunshito 2.5 g single oral, n = 21, median (minimum–maximum)): 0.5 h
AUC(0-t) ([2]; human, in vivo, po, 5 g): 1.06 ng·h/mL
Cmax ([2]; human, in vivo, po, 5 g): 1.02 ng/mL
Tmax ([2]; human, in vivo, po, 5 g, Median t max (range), rikkunshito 5.0 g single oral, n = 19, median (minimum–maximum)): 0.5 h
half-life ([2]; human, in vivo, po, 5 g, t 1/2, rikkunshito 5.0 g single oral, n = 19, geometric mean (95% CI)): 0.746 h
AUC(0-t) ([2]; human, in vivo, po, 7.5 g): 1.76 ng·h/mL
Cmax ([2]; human, in vivo, po, 7.5 g): 1.57 ng/mL
Tmax ([2]; human, in vivo, po, 7.5 g, Median t max (range), rikkunshito 7.5 g single oral, n = 19, median (minimum–maximum)): ≤ 1 h
t 1/2 [2, 16]: 0.888 (0.687–1.15) h
Median t max (range) [2, 17]: 0.500 (0.250–1.00) h
Maximum plasma concentration in the preliminary pharmacokinetics study ([3]; 7.5 g dosage): 1.84 ± 0.626 ng/mL
Stability in blood, remaining ratio (RR) ([4]; atractylodin 1.00 ng/mL, at room temperature for 2 h): 90.3%
Stability in blood, RR ([4]; atractylodin 1.00 ng/mL, on ice for 2 h): 93.8%
Post-preparative stability, RE ([5]; atractylodin 0.600 ng/mL, autosampler set at 4°C for 24 h): -3.8%
Post-preparative stability, RE ([5]; atractylodin 0.600 ng/mL, autosampler set at 4°C for 48 h): 4.0%
Post-preparative stability, RE ([5]; atractylodin 16.0 ng/mL, autosampler set at 4°C for 24 h): 9.0%
Post-preparative stability, RE ([5]; atractylodin 16.0 ng/mL, autosampler set at 4°C for 48 h): 8.7%

Cmax ([1]; human, in vivo): 58.2 ng/mL
Tmax ([2]; human, plasma, oral, t max, after rikkunshito administration, dose not given): 8 h
AUC(0-t) [2, 6]: 292 ng·h/mL
Cmax [2, 7]: 23 ng/mL
Tmax [2, 8]: 8 h
AUC(0-t) [2, 9]: 638 ng·h/mL
Cmax [2, 10]: 44.2 ng/mL
Tmax [2, 11]: 8 h
half-life [2, 12]: 8.94 h
AUC(0-t) [2, 13]: 832 ng·h/mL
Cmax [2, 14]: 55.6 ng/mL
half-life [2, 15]: > 10 h
t 1/2 [2, 16]: 11.7 (8.90–15.3) h
Median t max (range) [2, 17]: 8.00 (5.98–23.7) h
Median t max (range) ([2]; rikkunshito 7.5 g single oral, n = 19, median (minimum–maximum), listed as 18β-glycyrrhetinic acid): exceeding 3 h
Stability in blood, RR ([4]; 1600 pg/mL, at room temperature for 2 h): 104.2%
Stability in blood, RR ([4]; 1600 pg/mL, on ice for 2 h): 108.8%
Stability in blood, RR ([4]; 64000 pg/mL, at room temperature for 2 h): 98.2%
Stability in blood, RR ([4]; 64000 pg/mL, on ice for 2 h): 99.1%
Post-preparative stability, RR ([5]; 1600 pg/mL, autosampler set at 4°C for 24 h): 106.0%
Post-preparative stability, RR ([5]; 1600 pg/mL, autosampler set at 4°C for 48 h): 110.8%
Post-preparative stability, RR ([5]; 64000 pg/mL, autosampler set at 4°C for 24 h): 104.9%
Post-preparative stability, RR ([5]; 64000 pg/mL, autosampler set at 4°C for 48 h): 111.4%
SMILES: CC1(C)[C@@H](O)CC[C@]2(C)[C@H]3C(=O)C=C4[C@@H]5C[C@@](C)(C(=O)O)CC[C@]5(C)CC[C@@]4(C)[C@]3(C)CC[C@@H]12 [18β-Glycyrrhetinic acid]
half-life ([3]; protocol rationale for final sampling time): approximately 10 h

SMILES: COc1ccc(-c2cc(=O)c3c(OC)c(OC)c(OC)c(OC)c3o2)cc1OC [Nobiletin]
Plasma concentration, 0 h ([1]; 0 h (preadministration), single oral rikkunshito 7.5 g, mean ± S.D., n = 4): BQL
Plasma concentration, 0.5 h ([1]; 0.5 h after single oral rikkunshito 7.5 g, mean ± S.D., n = 4): 0.047 ± 0.0474 ng/mL
Plasma concentration, 1 h ([1]; 1 h after single oral rikkunshito 7.5 g, mean ± S.D., n = 4): 0.0282 ± 0.0389 ng/mL
Plasma concentration, 2 h ([1]; 2 h after single oral rikkunshito 7.5 g, mean ± S.D., n = 4): 0.00545 ± 0.0109 ng/mL
Plasma concentration, 4 h ([1]; 4 h after single oral rikkunshito 7.5 g, mean ± S.D., n = 4): BQL
Plasma concentration, 8 h ([1]; 8 h after single oral rikkunshito 7.5 g, mean ± S.D., n = 4): BQL
t max values ([2]; human, in vivo): 15 min-1 h
Maximum plasma concentration in the preliminary pharmacokinetics study ([3]; in vivo): 0.0626 ± 0.0436 ng/mL
Stability in blood, RR ([4]; 8 pg/mL, at room temperature for 2 h): 86.3%
Stability in blood, RR ([4]; 8 pg/mL, on ice for 2 h): 91.7%
Stability in blood, RR ([4]; 320 pg/mL, at room temperature for 2 h): 99.2%
Stability in blood, RR ([4]; 320 pg/mL, on ice for 2 h): 91.3%
Post-preparative stability, RR ([5]; 8 pg/mL, autosampler set at 4°C for 24 h): 89.5%
Post-preparative stability, RR ([5]; 8 pg/mL, autosampler set at 4°C for 48 h): 87.7%
Post-preparative stability, RR ([5]; 320 pg/mL, autosampler set at 4°C for 24 h): 88.0%
Post-preparative stability, RR ([5]; 320 pg/mL, autosampler set at 4°C for 48 h): 89.7%

— paper PMC4506051, “Pharmacokinetic Profiles of Active Ingredients and Its Metabolites Derived from Rikkunshito, a Ghrelin Enhancer, in Healthy Japanese Volunteers: A Cross-Over, Randomized Study” (PLoS ONE, 2015)
